Results reported in patent US11274124B2, “Tubulysin analogues as anticancer agents and payloads for antibody-drug conjugates and methods of treatment therewith” (William Marsh Rice University, priority 2017, dated 2022).
Where two headings read alike, the source gives them in different places.

Key:
[1] = system: MES SA DX (MES SA cell line with marked multi-drug resistance); assay: In vitro cytotoxicity assay (CellTiter-Glo, 72 hours), MES SA DX; settings: for IC50: Homo sapiens, MES-SA, 72 h
[2] = system: HEK 293T (human embryonic kidney cancer cell line); assay: In vitro cytotoxicity assay (CellTiter-Glo, 72 hours), HEK 293T; assay type: cell-based; settings: Homo sapiens, HEK-293T
[3] = system: MES SA, MES SA DX and HEK 293T cells; assay: In vitro cytotoxicity assay, structure-activity discussion over the cell lines tested; settings: refers to Tables 2 and 3
[4] = system: MES SA (uterine sarcoma cell line); assay: In vitro cytotoxicity assay (CellTiter-Glo, 72 hours), MES SA; assay type: cell-based; settings: Homo sapiens, MES-SA
[5] = read-out: MES SA DX, IC50 Value in nM
[6] = 72 h, read-out: HEK 293T, IC50 Value in nM
[7] = 72 h, read-out: MES SA, IC50 Value in nM

Compound | IC50 [1, 5] | IC50 [2, 6] | cytotoxicity potency (in words, structure-activity discussion) [3] | IC50 [4, 7] | cytotoxicities against the marked drug resistant cancer cell line MES SA DX (in words) [1] | IC50 ([1]; read-out: MES SA DX, IC50) | IC50 ([2]; 72 h, read-out: HEK 293T, IC50) | IC50 ([4]; 72 h, read-out: MES SA, IC50) | IC50 ([2]; Table 2, 72 hours, CellTiter-Glo, read-out: HEK 293T, IC50 Value in nM) | IC50 ([4]; Table 2, 72 hours, CellTiter-Glo, read-out: MES SA, IC50 Value in nM)
CC(=O)O[C@H](C[C@H](C(C)C)N(C)C(=O)[C@@H](NC(=O)[C@H]1CCCCN1C)C(C)C)c1nc(C(=O)N[C@@H](Cc2ccccc2)C[C@H](C)C(=O)O)cs1 [Tb61, (2S,4R)-4-[({2-[(1R,3R)-1-Acetoxy-4-methyl-3-{methyl[(2S)-3-methyl-2-({[(2R)-1-methylpiperidin-2-yl]carbonyl}amino)butanoyl]amino}pentyl]-1,3-thiazol-4-yl}carbonyl)amino]-2-methyl-5-phenylpentanoic acid] | > 1000 nM | 5.99 nM | exceptional potencies | 6.07 nM | – | – | – | – | – | –
CCC(C)(C)[C@H](NC(=O)[C@H]1CCCCN1C)C(=O)N(C)[C@H](C[C@@H](OC(C)=O)c1nc(C(=O)N[C@@H](Cc2ccccc2)C[C@H](C)C(=O)O)cs1)C(C)C [Tb109, (2S,4R)-4-[({2-[(1R,3R)-1-Acetoxy-3-{[(2S)-3,3-dimethyl-2-({[(2R)-1-methylpiperidin-2-yl]car-bonyl}amino)pentanoyl](methyl)amino}-4-methylpentyl]-1,3-thiazol-4-yl}carbonyl)amino]-2-methyl-5-phenylpentanoic acid] | 1.39 nM | 0.01 nM | exceptional potencies | 0.36 nM | relatively potent (low nanomolar) | 1.39 nM | 0.01 nM | 0.36 nM | – | –
CCOC(=O)[C@@H](C)C[C@H](Cc1ccccc1)NC(=O)c1csc([C@@H](C[C@H](C(C)C)N(C)C(=O)[C@H](CC)NC(=O)[C@H]2CCCCN2C)OC(C)=O)n1 [Tb93, Ethyl (2S,4R)-4-[({2-[(1R,3R)-1-acetoxy-4-methyl-3-{methyl[(2S)-2-({[(2R)-1-methylpiperidin-2-yl]-carbonyl}amino)butanoyl]amino}pentyl]-1,3-thiazol-4-yl}carbonyl)amino]-2-methyl-5-phenylpentanoate] | 31.9 nM | 0.2 nM | significant potencies | 0.15 nM | – | 31.9 nM | 0.2 nM | 0.15 nM | – | –
CCOC(=O)[C@@H](C)CC(Cc1ccccc1)NC(=O)c1csc([C@@H](CC(C(C)C)N(C)C(=O)[C@@H](NC(=O)[C@H]2C[C@H](O[Si](C)(C)C(C)(C)C)CCN2C)C(C)C)OC(C)=O)n1 (stereo in doubt) [Tb77, Ethyl (2S,4S)-4-[({2-[(1R,3S)-1-acetoxy-3-{[(2S)-2-({[(4R)-4-{[tert-butyl(dimethyl)silyl]oxy}-1-meth-ylpiperidin-2-yl]carbonyl}amino)-3-methylbutanoyl](methyl)amino}-4-methylpentyl]-1,3-thiazol-4-yl}carbonyl)amino]-2-methyl-5-phenylpentanoate] | > 2500 nM | > 400 nM | insignificant or low biological activity | 848 nM | – | – | – | – | – | –
CCCCN1CCCC[C@@H]1C(=O)N[C@H](C(=O)N(C)[C@H](CCc1nc(C(=O)N[C@@H](Cc2ccccc2)C[C@H](C)C(=O)OC)cs1)C(C)C)[C@@H](C)CC [PTb-D47] | > 1000 nM | > 1000 nM | insignificant or low biological activity | > 1000 nM | – | – | – | – | – | –
CCCCN1CCCC[C@@H]1C(=O)N[C@H](C(=O)N(C)[C@H](CCc1nc(C(=O)N[C@@H](Cc2ccccc2)C[C@H](C)C(=O)OC)cs1)C(C)C)C(C)C [PTb-D49] | > 1000 nM | – | insignificant or low biological activity | – | – | – | – | – | > 1000 nM | > 1000 nM
CCOC(=O)[C@@H](C)C[C@H](Cc1ccccc1)NC(=O)c1csc([C@@H](C[C@H](C(C)C)N(C)C(=O)[C@@H](NC(=O)[C@H]2CCCCN2C)C(C)(C)CC)OC(C)=O)n1 [Tb108, Ethyl (2S,4R)-4-[({2-[(1R,3R)-1-acetoxy-3-{[(2S)-3,3-dimethyl-2-({[(2R)-1-methylpiperidin-2-yl]car-bonyl}amino)pentanoyl](methyl)amino}-4-methylpentyl]-1,3-thiazol-4-yl}carbonyl)amino]-2-methyl-5-phenylpentanoate] | 6.08 nM | 0.38 nM | exceptional potencies | 0.95 nM | – | 6.08 nM | 0.38 nM | 0.95 nM | – | –
CC[C@H](C)[C@H](NC(=O)[C@H]1CCCCN1C)C(=O)N(C)[C@H](C[C@@H](O)c1nc(C(=O)N[C@@H](Cc2ccccc2)C[C@H](C)C(=O)O)cs1)C(C)C [Tb58, (2S,4R)-4-[({2-[(1R,3R)-1-Hydroxy-4-methyl-3-{methyl[(2S,3S)-3-methyl-2-({[(2R)-1-methylpiperidin-2-yl]carbonyl}amino)pentanoyl]amino}pentyl]-1,3-thiazol-4-yl}carbonyl)amino]-2-methyl-5-phenylpentanoic acid] | > 1000 nM | > 1000 nM | significant reduction in potency | > 1000 nM | – | – | – | – | – | –
COC(=O)C12CC(NC(=O)c3csc([C@@H](C[C@H](C(C)C)N(C)C(=O)[C@@H](NC(=O)[C@H]4CCCCN4C)C(C)C)OC(C)=O)n3)(C1)C2 [Tb102, Methyl 3-{[(2-{1-acetoxy-4-methyl-3-[methyl(3-methyl-2-{[(1-methylpiperidin-2-yl)carbonyl]amino}-butanoyl)amino]pentyl}-1,3-thiazol-4-yl)carbonyl]amino}bicyclo[1.1.1]pentane-1-carboxylate] | 54.1 nM | 0.355 nM | subnanomolar potencies against two of the cell lines tested | 0.926 nM | – | 54.1 nM | 0.355 nM | 0.926 nM | – | –
CC(=O)O[C@H](C[C@H](C(C)C)N(C)C(=O)[C@@H](NC(=O)[C@H]1CCCCN1C)C(C)C)c1nc(C(=O)N[C@@H](Cc2ccccc2)C[C@H](C)C(=O)O)c(C)s1 [Tb67, (2S,4R)-4-[({2-[(1R,3R)-1-Acetoxy-4-methyl-3-{methyl[(2S)-3-methyl-2-({[(2R)-1-methylpiperidin-2-yl]carbonyl}amino)butanoyl]amino}pentyl]-5-methyl-1,3-thiazol-4-yl}carbonyl)amino]-2-methyl-5-phenylpentanoic acid] | 71.5 nM | 0.143 nM | some loss of potency | 0.836 nM | – | 71.5 nM | 0.144 nM | 0.836 nM | – | –
COC(=O)[C@@H](C)C[C@H](Cc1ccc(F)cc1)NC(=O)c1csc([C@@H](C[C@H](C(C)C)N(C)C(=O)[C@@H](NC(=O)[C@H]2CCCCN2C)C2CC2)OC(C)=O)n1 [Tb101, Methyl (2S,4R)-4-[({2-[(1R,3R)-1-acetoxy-3-{[(2S)-2-cyclopropyl-2-({[(2R)-1-methylpiperidin-2-yl]-carbonyl}amino)acetyl](methyl)amino}-4-methylpentyl]-1,3-thiazol-4-yl}carbonyl)amino]-5-(4-fluorophenyl)-2-methylpentanoate] | > 1000 nM | > 1000 nM | loss of activity | > 1000 nM | – | – | – | – | – | –
COC(=O)CC[C@H](Cc1ccccc1)NC(=O)c1csc([C@@H](C[C@H](C(C)C)N(C)C(=O)[C@@H](NC(=O)[C@H]2CCCCN2C)C(C)C)OC(C)=O)n1 [Tb105, Methyl 4-{[(2-{1-acetoxy-4-methyl-3-[methyl(3-methyl-2-{[(1-methylpiperidin-2-yl)carbonyl]-amino}butanoyl)amino]pentyl}-1,3-thiazol-4-yl)carbonyl]amino}-5-phenylpentanoate] | > 1000 nM | 1.53 nM | considerable loss of activity | 2.94 nM | – | – | – | – | – | –
CC(C)[C@H](NC(=O)[C@H]1CCCCN1C)C(=O)N(C)[C@H](CC(=O)c1nc(C(=O)N[C@@H](Cc2ccccc2)C[C@H](C)C(=O)O)cs1)C(C)C [Tb62, (2S,4R)-2-Methyl-4-[({2-[(3R)-4-methyl-3-{methyl[(2S)-3-methyl-2-({[(2R)-1-methylpiperidin-2-yl]-carbonyl}amino)butanoyl]amino}pentanoyl]-1,3-thiazol-4-yl}carbonyl)amino]-5-phenylpentanoic acid] | > 1000 nM | > 1000 nM | significant reduction in potency | > 1000 nM | – | – | – | – | – | –
COC(=O)[C@@H](C)C[C@H](Cc1ccccc1)NC(=O)c1nc([C@@H](C[C@H](C(C)C)N(C)C(=O)[C@@H](NC(=O)[C@H]2CCCCN2C)C(C)C)OC(C)=O)sc1C(C)C [Tb72, Methyl (2S,4R)-4-[({2-[(1R,3R)-1-acetoxy-4-methyl-3-{methyl[(2S)-3-methyl-2-({[(2R)-1-methyl-piperidin-2-yl]carbonyl}amino)butanoyl]amino}pentyl]-5-isopropyl-1,3-thiazol-4-yl}carbonyl)-amino]-2-methyl-5-phenylpentanoate] | > 70 nM | 4.02 nM | significant loss of potency | 11.7 nM | – | – | – | – | – | –
